Reference: patent publication US10487313B2, “Efficient induction of definitive endoderm from pluripotent stem cells” (Novo Nordisk A/S, priority 2011, dated 2019)
Entries after “also recorded” stand apart in the source; their conditions may differ.

What was measured:
chIPS4 cells = test: Further differentiation of DE towards pancreatic endoderm, PDX1 by ICC and real-time PCR; format: cell-based, human; details: seven days after induction of PE differentiation
Method: When cells were further differentiated to PE, the DE protocol was applied in T75 cell culture flasks and reseeded after 4 d of DE culture at a density of 200 K in DE media. 1 d later, cells were washed once before addition of PE media (RPMI1640+12% KOSR+64 ng/ml bFGF) according to published protocol (Amen et al 2010). RNA samples were collected after 24 h pre-treatment (D1), after 1 day of AA treatment (D2) and after 1-2 d of AA+B27 treatment (D3-4). Total RNA was extracted with the Rneasy Plus Mini kit (Qiagen) and quantitative real-time PCR was performed using the StepOnePLus system (Applied Biosystems). Cells were washed in PBS+/+ and fixed in 4% formaldehyde for 30 min (10% formaline, VWR). The cells were then washed again three times in PBS and left in PBS (4° C.) until staining. Fixed cells were washed with PBS once, then permeabilized with 0.5% Triton X-100 in PBS for 6 min, washed in PBS and blocked with TNB buffer (0.1 M Tris-HCL pH 7.5, 0.15 M NaCl, 0.5% Blocking Reagent (Perkin Elmer)) for 30 min. […] Seven days after the induction of PE differentiation the cells were fixed and analyzed by ICC using a PDX1 specific antibody. […] In parallel, mRNA was collected from the cells and the PDX1 expression was analyzed by real-time PCR. […]

[1] = system: SA121 hES and chIPS4 iPS cells; test: Quantitative real-time PCR of PS and DE markers (Brachyury, SOX17) during DE induction; format: cell-based, human
Method: Human embryonic stem (hES) cells SA121 and chIPS4 (Cellartis) were grown on human fibronectin (Sigma) in DEF culture media (Cellartis) with 30 ng/ml bFGF (Invitrogen) and 10 ng/ml Noggin (Peprotech) in 6-96 well plates. Cells were single cell passaged with Rock inhibitor Y-27632 (Calbiochem) and seeded at a density of 40000 cells/cm2 for experiments. Experiments were initiated 4 d after passage.
Confluent cultures were washed once in RPMI1640 (Invitrogen) before 24 hour pre-treatment with 0,5-7μM CHIR99021 (Stemgent) in RPMI. Control cells were left untreated in RPMI and D'Amour cells were either left in RPMI or treated with AA (Peprotech)+Wnt3a (R&D Systems) without pre-treatment depending on experimental setup.
After 24 hours, pretreated and control cells were washed once with RPMI before adding 100 ng/ml AA in RPMI. D'Amour cells were also treated with 100 ng/ml AA but with 0,2% FBS instead of B27. 24 h later, 2% B27 (Invitrogen) was added to the AA media for 2-3 d. Control cells were treated with B27 to prevent cell death and D'Amour cells with 2% FBS according to published protocol. Media was changed every day.
RNA samples were collected after 24 h pre-treatment (D1), after 1 day of AA treatment (D2) and after 1-2 d of AA+B27 treatment (D3-4). Total RNA was extracted with the Rneasy Plus Mini kit (Qiagen) and quantitative real-time PCR was performed using the StepOnePLus system (Applied Biosystems).
Undifferentiated SA121 hES and chIPS4 iPS cells in DEF media (DO) were cultured either in RPMI without CHIR (Ctrl D1) or treated for 24 h with CHIR in RPMI (CHIR D1). The cells were then washed to ensure absence of CHIR and then both conditions were treated with 1 d AA (Ctrl and CHIR d2). […] T fold inductions after 24 h CHIR treatment spanned between 500-100000 compared to undifferentiated cells (d0). T protein levels were also confirmed with ICC (FIG. 2C).
The efficiency levels for both T and SOX17 were highly robust (n>60) and confirmed with IHC and SOX17 quantifications (FIG. 2C and Table 2.). […] SOX17 expression peaked already after one day of AA treatment when cells were subjected to CHIR for 24 h before AA induction.
hES SA121 and ChIPS4 cells were treated with either CHIR (3 μM), BIO (0.5 μM), Wnt3a (200 ng/ml) or AA alone (100 ng/ml) for 24 h prior to AA addition to show CHIR specificity (d1). Additionally, D'Amour (protocol as described in Kroon et al 2008) was tested in parallel.
Chir was titrated at concentrations between 1-7 uM and analyzed after 24 h Chir treatment (D1) and after 2 d of following AA treatment (D3).

[2] = 24 h CHIR (2-7 μM) in RPMI-1640, then AA containing medium

Cc1c[nH]c(-c2cnc(NCCNc3ccc(C#N)cn3)nc2-c2ccc(Cl)cc2Cl)n1 [CHIR, CHIR99021]
PDX1 mRNA expression by real-time PCR (chIPS4 cells): clear expression | PDX1 staining by ICC (chIPS4 cells): evident | time of SOX17 mRNA expression peak [1, 2]: 2 days | time of SOX17 protein expression peak [1, 2]: 3 to 4 days | Sox17 expression ([1]; CHIR 1 uM, 2 d after AA treatment (D3)): significantly lower | Brachyury induction ([1]; CHIR 3 uM, after 24 h treatment (D1)): significantly seen; also recorded: significantly upregulated | DE induction after subsequent AA stimulation ([1]; CHIR concentrations below 2 μM, after 72 hrs): not induced | Brachyury (T) fold induction compared to undifferentiated cells ([1]; after 24 h CHIR treatment (D1), n>60): 500-100000 fold
